Source: patent US11708318B2, “Polymorphic forms of RAD1901-2HCL” (Radius Pharmaceuticals, Inc., priority 2017, dated 2023)
“Also recorded” adds a separate entry of the source. Read-outs that look alike come from different tables or passages of the source.

Key:
Format in all cases: physicochemical
[1] = Storage at elevated temperature/humidity, analysed by XRPD
Method: Samples 1 and 2 were characterized by XRPD at various conditions. XRPD patterns were collected for the samples at ambient condition as the samples were provided; at variable temperature (VT-XRPD); at variable humidity (VH-XRPD); after the samples were exposed to 40° C./75% RH for 1 week and 25° C./97% RH for 1 week, respectively; and after a GVS measurement wherein the samples were exposed to 0-90% RH. Samples 1 and 2 were also characterized by ^1H NMR, TGA, DSC, KF, IC, GVS (exposed to 0-90% RH), PLM, SEM, and HPLC (Table 5).

[2] = Variable humidity XRPD (VH-XRPD); conditions: ~95% RH, 24 hr
Method: Samples run under non-ambient conditions were prepared by gently packing into a cavity, cut into a silicon wafer to obtain a flat surface and mounted onto a humidity stage with an Ansyco controller and humidity sensor positioned directly next to the sample holder. The data were collected at 298.15 K with water temperature of 35.0° C., in an angular range of 3 to 31° 2θ, with a step size of 0.025° 2θ, a collection time of 2.0 sec/step, and a collection time at each % RH was 41 min 28 sec. X-Ray Powder Diffraction (XRPD) patterns were collected at variable humidity values from 0 to 95% RH, based upon the humidity behavior of each compound observed during GVS experiments (described herein). For each Variable Humidity X-Ray Powder Diffraction (VH-XRPD) experiment performed, the % RH values selected are provided alongside the relevant experimental result. Full tables of detailing the % RH value at each collection point and the associated delay time at each value are provided in Tables 10-12. To fully characterize the polymorphic behavior of Samples 1 and 2 at variable humidity, and to collect reference XRPD patterns for the ‘pure’ anhydrous Form 1 and Form 2 material, and ‘pure’ hydrated Form 3 material, Variable Humidity (VH) XRPD experiments were conducted on Samples 1 and 2. Initially, VH-XRPD experiments were conducted using Sample 1, and XRPD diffractograms were collected at selected humidity values, in line with those collected during GVS experiments (see FIGS. 6E-6F). XRPD diffractograms were collected initially at ambient RH, then collected over 24 hours at ˜95% RH and finally collected during desorption steps to 0% RH and over 10 hours at 0% RH (see FIG. 4C). […]

[3] = Solubility assessment of Sample 1 (majorly Form 1) in 24 solvent systems; conditions: organic solvent or mixture
Method: Solubility assessment was carried out on the Sample 1 of RAD1901-2HCl (majorly Form 1 shown by XRPD) in 24 solvent systems in HPLC vials (sample IDs: A1 to A24). RAD1901-2HCl (25 mg) was treated with increasing volumes of solvent until the material fully dissolved or until a maximum of 60 vol had been used (Table 13).
After each addition of solvent, the system was stirred for 5 to 10 minutes at 25° C., then shaken at 50° C. for 5 to 10 minutes, and observations made. Samples were allowed to stand at room temperature for 5 min before the addition of a new aliquot of solvent. After the assessment was completed, the suspensions obtained were matured (maturation) and the clear solutions were cooled (cooling) and slowly evaporated (evaporation) as described below. All solids recovered from maturation, cooling and evaporation experiments were analyzed by high resolution XRPD.

Q: What does the source list for `CCNCCc1ccc(CN(CC)c2cc(OC)ccc2[C@@H]2CCc3cc(O)ccc3C2)cc1.Cl.Cl` [Sample 1]?
A: XRPD after storage at 25° C./97% RH for 1 week ([1]; 25° C./97% RH, 1 week): Form 3; Solid form on prolonged exposure to high RH (>90%) ([1]; high RH (>90%), e.g. for 7 days): converted to the hydrate Form 3; VH-XRPD at ~95% RH over 24 hr [2]: slow conversion towards the hydrated state; also recorded: Form 3 over 24; solubility ([3]; 1,2-dimethoxyethane, 50 °C, thermodynamic from solid, 1,2-dimethoxyethane, sample ID A16, read-out: Solubility assessment 10 vol.): < 100 mg/mL; solubility ([3]; 1,2-dimethoxyethane, 50 °C, thermodynamic from solid, 1,2-dimethoxyethane, sample ID A16, read-out: Solubility assessment 20 vol.): < 50 mg/mL; solubility ([3]; 1,2-dimethoxyethane, 50 °C, thermodynamic from solid, 1,2-dimethoxyethane, sample ID A16, read-out: Solubility assessment 40 vol.): < 25 mg/mL; solubility ([3]; 1,2-dimethoxyethane, 50 °C, thermodynamic from solid, 1,2-dimethoxyethane, sample ID A16, read-out: Solubility assessment 60 vol.): < 16.7 mg/mL; solubility ([3]; 1,4-dioxane, 50 °C, thermodynamic from solid, 1,4-Dioxane, sample ID A14, read-out: Solubility assessment 10 vol.): < 100 mg/mL; solubility ([3]; 1,4-dioxane, 50 °C, thermodynamic from solid, 1,4-Dioxane, sample ID A14, read-out: Solubility assessment 20 vol.): < 50 mg/mL; solubility ([3]; 1,4-dioxane, 50 °C, thermodynamic from solid, 1,4-Dioxane, sample ID A14, read-out: Solubility assessment 40 vol.): < 25 mg/mL; solubility ([3]; 1,4-dioxane, 50 °C, thermodynamic from solid, 1,4-Dioxane, sample ID A14, read-out: Solubility assessment 60 vol.): < 16.7 mg/mL; solubility ([3]; 1-propanol, 50 °C, thermodynamic from solid, 1-propanol, sample ID A8, read-out: Solubility assessment 10 vol.): < 100 mg/mL; solubility ([3]; 1-propanol, 50 °C, thermodynamic from solid, 1-propanol, sample ID A8, read-out: Solubility assessment 20 vol.): < 50 mg/mL; solubility ([3]; 1-propanol, 50 °C, thermodynamic from solid, 1-propanol, sample ID A8, read-out: Solubility assessment 40 vol.): < 25 mg/mL; solubility ([3]; 1-propanol, 50 °C, thermodynamic from solid, 1-propanol, sample ID A8, read-out: Solubility assessment 60 vol.): < 16.7 mg/mL; solubility ([3]; 2-propanol, 50 °C, thermodynamic from solid, 2-propanol, sample ID A6, read-out: Solubility assessment 10 vol.): < 100 mg/mL; solubility ([3]; 2-propanol, 50 °C, thermodynamic from solid, 2-propanol, sample ID A6, read-out: Solubility assessment 20 vol.): < 50 mg/mL; solubility ([3]; 2-propanol, 50 °C, thermodynamic from solid, 2-propanol, sample ID A6, read-out: Solubility assessment 40 vol.): < 25 mg/mL; solubility ([3]; 2-propanol, 50 °C, thermodynamic from solid, 2-propanol, sample ID A6, read-out: Solubility assessment 60 vol.): < 16.7 mg/mL; solubility ([3]; 10% water/EtOH, 50 °C, thermodynamic from solid, 10% water/EtOH, sample ID A22, read-out: Solubility assessment 10 vol.): 50 to 100 mg/mL; solubility ([3]; 10% water/EtOH, 50 °C, thermodynamic from solid, 10% water/EtOH, sample ID A22, read-out: Solubility assessment 20 vol.): 50 to 100 mg/mL; solubility ([3]; 10% water/IPA, 50 °C, thermodynamic from solid, 10% water/IPA, sample ID A23, read-out: Solubility assessment 10 vol.): < 100 mg/mL; solubility ([3]; 10% water/IPA, 50 °C, thermodynamic from solid, 10% water/IPA, sample ID A23, read-out: Solubility assessment 20 vol.): < 50 mg/mL; solubility ([3]; 10% water/IPA, 50 °C, thermodynamic from solid, 10% water/IPA, sample ID A23, read-out: Solubility assessment 40 vol.): 16.7 to 25 mg/mL; solubility ([3]; 10% water/IPA, 50 °C, thermodynamic from solid, 10% water/IPA, sample ID A23, read-out: Solubility assessment 60 vol.): 16.7 to 25 mg/mL; solubility ([3]; 10% water/THF, 50 °C, thermodynamic from solid, 10% water/THF, sample ID A24, read-out: Solubility assessment 10 vol.): < 100 mg/mL; solubility ([3]; 10% water/THF, 50 °C, thermodynamic from solid, 10% water/THF, sample ID A24, read-out: Solubility assessment 20 vol.): < 50 mg/mL; solubility ([3]; 10% water/THF, 50 °C, thermodynamic from solid, 10% water/THF, sample ID A24, read-out: Solubility assessment 40 vol.): 16.7 to 25 mg/mL; solubility ([3]; 10% water/THF, 50 °C, thermodynamic from solid, 10% water/THF, sample ID A24, read-out: Solubility assessment 60 vol.): 16.7 to 25 mg/mL; solubility ([3]; MEK, 50 °C, thermodynamic from solid, MEK, sample ID A7, read-out: Solubility assessment 10 vol.): < 100 mg/mL; solubility ([3]; MEK, 50 °C, thermodynamic from solid, MEK, sample ID A7, read-out: Solubility assessment 20 vol.): < 50 mg/mL; solubility ([3]; MEK, 50 °C, thermodynamic from solid, MEK, sample ID A7, read-out: Solubility assessment 40 vol.): < 25 mg/mL; solubility ([3]; MEK, thermodynamic from solid, MEK, sample ID A7, read-out: Solubility assessment 60 vol.): < 16.7 mg/mL; solubility ([3]; MIBK, 50 °C, thermodynamic from solid, MIBK, sample ID A5, read-out: Solubility assessment 10 vol.): < 100 mg/mL; solubility ([3]; MIBK, 50 °C, thermodynamic from solid, MIBK, sample ID A5, read-out: Solubility assessment 20 vol.): < 50 mg/mL; solubility ([3]; MIBK, 50 °C, thermodynamic from solid, MIBK, sample ID A5, read-out: Solubility assessment 40 vol.): < 25 mg/mL; solubility ([3]; MIBK, thermodynamic from solid, MIBK, sample ID A5, read-out: Solubility assessment 60 vol.): < 16.7 mg/mL; solubility ([3]; TBME, 50 °C, thermodynamic from solid, TBME, sample ID A13, read-out: Solubility assessment 10 vol.): < 100 mg/mL; solubility ([3]; TBME, 50 °C, thermodynamic from solid, TBME, sample ID A13, read-out: Solubility assessment 20 vol.): < 50 mg/mL; solubility ([3]; TBME, 50 °C, thermodynamic from solid, TBME, sample ID A13, read-out: Solubility assessment 40 vol.): < 25 mg/mL; solubility ([3]; TBME, thermodynamic from solid, TBME, sample ID A13, read-out: Solubility assessment 60 vol.): < 16.7 mg/mL; solubility ([3]; acetone, 50 °C, thermodynamic from solid, Acetone, sample ID A9, read-out: Solubility assessment 10 vol.): < 100 mg/mL; solubility ([3]; acetone, 50 °C, thermodynamic from solid, Acetone, sample ID A9, read-out: Solubility assessment 20 vol.): < 50 mg/mL; solubility ([3]; acetone, 50 °C, thermodynamic from solid, Acetone, sample ID A9, read-out: Solubility assessment 40 vol.): < 25 mg/mL; solubility ([3]; acetone, 50 °C, thermodynamic from solid, Acetone, sample ID A9, read-out: Solubility assessment 60 vol.): < 16.7 mg/mL
